Each block holds one molecule with its values, some of them ahead of it. Active and inactive are the calls of the source. The calls are words filed in the database; no cut-off is given here.
Columns and labels:
[1] = Chemical stability in simulated intestinal fluid assessed as parent compound remaining incubated for 12 hrs by LC-MS/MS analysis; type: ADME, physicochemical; conditions: simulated gi fluid
[2] = Chemical stability in simulated gastric fluid assessed as parent compound remaining incubated for 12 hrs by LC-MS/MS analysis; type: ADME, physicochemical; conditions: simulated gi fluid
[3] = Chemical stability of compound in pH 1.2 HCl buffer at 100 uM incubated for 24 hrs by HPLC analysis; type: physicochemical; conditions: pH 1.2, 24 h
[4] = Chemical stability of compound in pH 4.5 PBS buffer at 100 uM incubated for 24 hrs by HPLC analysis; type: physicochemical; conditions: pH 4.5, 24 h
[5] = Chemical stability of compound in pH 7.4 PBS buffer at 100 uM incubated for 24 hrs by HPLC analysis; type: physicochemical; conditions: pH 7.4, 24 h
[6] = Prodrug conversion in Sprague-Dawley rat colon content suspension assessed as tofacitinib release measured upto 8 hrs by HPLC analysis; type: ADME, tissue-based
[7] = Ratio of prodrug conversion in BALB/c mouse intestine assessed as tofacitinib AUC(0 to 12 hrs) at 22.5 mg/kg, po to prodrug conversion in BALB/c mouse ileum assessed as tofacitinib AUC(0 to 12 hrs) at 22.5 mg/kg, po; type: ADME, organism-based; conditions: in vivo
[8] = Ratio of prodrug conversion in BALB/c mouse intestine assessed as tofacitinib AUC(0 to 12 hrs) at 22.5 mg/kg, po to prodrug conversion in BALB/c mouse jejunum assessed as tofacitinib AUC(0 to 12 hrs) at 22.5 mg/kg, po; type: ADME, organism-based; conditions: in vivo
[9] = Acute toxicity in Kunming mouse assessed as change in creatine level in kidney at 2000 mg/kg, po measured for 7 days; type: organism-based; conditions: in vivo, 168 h, time 7 day
[10] = Acute toxicity in Kunming mouse assessed as change in urea level in kidney at 2000 mg/kg, po measured for 7 days; type: organism-based; conditions: in vivo, 168 h, time 7 day
[11] = Acute toxicity in Kunming mouse assessed as change in ALT level in liver at 2000 mg/kg, po measured for 7 days; type: organism-based; conditions: in vivo, 168 h, time 7 day
[12] = Acute toxicity in Kunming mouse assessed as change in AST level in liver at 2000 mg/kg, po measured for 7 days; type: organism-based; conditions: in vivo, 168 h, time 7 day
[13] = Prodrug conversion in Sprague-Dawley rat assessed as tofacitinib release at 22.5 mg/kg, po measured after 1 hr by HPLC analysis; type: ADME, organism-based; conditions: in vivo
[14] = Prodrug conversion in Sprague-Dawley rat assessed as Cmax of tofacitinib at 22.5 mg/kg, po measured up to 20 hrs by LC-MS/MS analysis; type: ADME, organism-based; set-up: route oral, dose 22.5 mg/kg, time <=20; conditions: in vivo
[15] = Prodrug conversion in Sprague-Dawley rat assessed as Tmax of tofacitinib at 22.5 mg/kg, po measured up to 20 hrs by LC-MS/MS analysis; type: ADME, organism-based; conditions: in vivo
[16] = Prodrug conversion in Sprague-Dawley rat assessed as AUC (0 to infinity) of tofacitinib at 22.5 mg/kg, po measured up to 20 hrs by LC-MS/MS analysis; type: ADME, organism-based; set-up: route oral, dose 22.5 mg/kg, time <=20; conditions: in vivo
[17] = Prodrug conversion in Sprague-Dawley rat assessed as elimination half life of tofacitinib at 22.5 mg/kg, po measured up to 20 hrs by LC-MS/MS analysis; type: ADME, organism-based; conditions: in vivo
[18] = Prodrug conversion in BALB/c mouse plasma assessed as tofacitinib AUC(0 to 12 hrs) at 22.5 mg/kg, po measured upto 12 hrs by LC-MS/MS analysis; type: ADME, organism-based; set-up: route oral, dose 22.5 mg/kg, time <=12; conditions: in vivo
[19] = Ratio of prodrug conversion in BALB/c mouse intestine assessed as tofacitinib AUC(0 to 12 hrs) at 22.5 mg/kg, po to prodrug conversion in BALB/c mouse duodenum assessed as tofacitinib AUC(0 to 12 hrs) at 22.5 mg/kg, po; type: ADME, organism-based; conditions: in vivo
[20] = Prodrug conversion in BALB/c mouse duodenum assessed as tofacitinib AUC(0 to 12 hrs) at 22.5 mg/kg, po measured upto 12 hrs by LC-MS/MS analysis; type: ADME, organism-based; set-up: route oral, dose 22.5 mg/kg, time <=12; conditions: in vivo
[21] = Prodrug conversion in BALB/c mouse jejunum assessed as tofacitinib AUC(0 to 12 hrs) at 22.5 mg/kg, po measured upto 12 hrs by LC-MS/MS analysis; type: ADME, organism-based; set-up: route oral, dose 22.5 mg/kg, time <=12; conditions: in vivo
[22] = Prodrug conversion in BALB/c mouse ileum assessed as tofacitinib AUC(0 to 12 hrs) at 22.5 mg/kg, po measured upto 12 hrs by LC-MS/MS analysis; type: ADME, organism-based; set-up: route oral, dose 22.5 mg/kg, time <=12; conditions: in vivo
[23] = Prodrug conversion in BALB/c mouse colon assessed as tofacitinib AUC(0 to 12 hrs) at 22.5 mg/kg, po measured upto 12 hrs by LC-MS/MS analysis; type: ADME, organism-based; set-up: route oral, dose 22.5 mg/kg, time <=12; conditions: in vivo
Mus musculus [24] = assay: Anti-ulcerative colitis activity against oxazolone induced ulcerative colitis Balb/c mouse model assessed as prevention of body weight loss at 1.5 mg/kg, po bid incubated for 24 hrs; type: functional, organism-based
Mus musculus [25] = assay: Anti-ulcerative colitis activity against oxazolone induced ulcerative colitis Balb/c mouse model assessed as prevention of body weight loss at 1.5 mg/kg, po bid measured after 36 hrs; type: functional, organism-based
Mus musculus [26] = assay: Anti-ulcerative colitis activity against oxazolone induced ulcerative colitis BALB/c mouse model assessed as improved stool consistency at 1.5 mg/kg, po bid measured after 36 hrs; type: functional, organism-based
Mus musculus [27] = assay: Anti-ulcerative colitis activity against BALB/c mouse model of oxazolone-induced ulcerative colitis assessed as prevention of oxazolone-induced increase in colon density at 1.5 mg/kg, po bid measured after 4 days; type: functional, organism-based; conditions: time 4.0 day
Mus musculus [28] = assay: Anti-ulcerative colitis activity against BALB/c oxazolone-induced ulcerative colitis mouse model assessed as prevention of oxazolone-induced increase in colon weight at 1.5 mg/kg, po bid measured after 4 days; type: functional, organism-based; conditions: time 4.0 day
Mus musculus [29] = assay: Anti-ulcerative colitis activity against BALB/c oxazolone-induced ulcerative colitis mouse model assessed as prevention of oxazolone-induced increase in shortening of colon length at 1.5 mg/kg, po bid measured after 4 days; type: functional, organism-based; conditions: time 4.0 day
Mus musculus [30] = assay: Anti-ulcerative colitis activity against oxazolone-induced ulcerative colitis BALB/c mouse model assessed as improvement in spleen index at 1.5 mg/kg, po bid measured after 4 days; type: functional, organism-based; conditions: time 4.0 day
Mus musculus [31] = assay: Anti-ulcerative colitis activity against BALB/c oxazolone-induced ulcerative colitis mouse model assessed as prevention of oxazolone-induced edema at 1.5 mg/kg, po by H and E staining based histopathological analysis; type: functional, organism-based
Mus musculus [32] = assay: Anti-ulcerative colitis activity against BALB/c oxazolone-induced ulcerative colitis mouse model assessed as prevention of oxazolone-induced leukocyte infiltration at 1.5 mg/kg, po by H and E staining based histopathological analysis; type: functional, organism-based
Mus musculus [33] = assay: Anti-ulcerative colitis activity against BALB/c oxazolone-induced ulcerative colitis mouse model assessed as preserved intestinal mucosal epithelial integrity at 1.5 mg/kg, po by H and E staining based histopathological analysis; type: functional, organism-based
Mus musculus [34] = assay: Immunosuppressive activity in BALB/c mouse assessed as reduction in CD49+ NK cell count at 1.5 mg/kg, ig bid measured after 4 days by flow cytometry analysis; type: functional, organism-based; conditions: time 4.0 day
Mus musculus [35] = assay: Immunosuppressive activity in BALB/c mouse assessed as reduction in spleen index at 1.5 mg/kg, ig bid measured after 4 days by flow cytometry analysis; type: functional, organism-based; conditions: time 4.0 day
[36] = Acute toxicity in Kunming mouse assessed as animal death at 2000 mg/kg, po measured for 7 days; type: organism-based; conditions: in vivo, 168 h, time 7 day
[37] = Acute toxicity in Kunming mouse model assessed as increase in body weight at 2000 mg/kg, po measured for 7 days; type: organism-based; conditions: in vivo, 168 h, time 7 day
[38] = Toxicity in Kunming mouse assessed as change in liver index at 2000 mg/kg, po measured for 7 days; type: organism-based; conditions: in vivo, 168 h, time 7 day
[39] = Toxicity in Kunming mouse assessed as change in kidney index at 2000 mg/kg, po measured for 7 days; type: organism-based; conditions: in vivo, 168 h, time 7 day
[40] = Toxicity in Kunming mouse assessed as change in spleen index at 2000 mg/kg, po measured for 7 days; type: organism-based; conditions: in vivo, 168 h, time 7 day
[41] = Ratio of prodrug conversion in BALB/c mouse intestine assessed as tofacitinib AUC(0 to 12 hrs) at 22.5 mg/kg, po to prodrug conversion in BALB/c mouse colon assessed as tofacitinib AUC(0 to 12 hrs) at 22.5 mg/kg, po; type: ADME, organism-based; conditions: in vivo
Mus musculus [42] = assay: Anti-ulcerative colitis activity against oxazolone induced ulcerative colitis BALB/c mouse model assessed as improved stool blood at 1.5 mg/kg, po bid measured after 36 hrs; type: functional, organism-based

Stability [1]: Stable | Stability [2]: Stable | Stability [3]: Stable | Stability [4]: Stable | Stability [5]: Stable | Drug metabolism [6]: 2.72 mmol/L/h
Compound: Cc1cc(/N=N/c2ccc(O)c(C(=O)O)c2)ccc1COC(=O)N(C)CCN(C)C(=O)n1ccc2c(N(C)[C@H]3CN(C(=O)CC#N)CC[C@H]3C)ncnc21

Stability [1]: Stable | Stability [2]: Stable | Stability [3]: Stable | Stability [4]: Stable | Stability [5]: Stable | Drug metabolism [6]: 2.44 mmol/L/h
Compound: COc1cc(/N=N/c2ccc(O)c(C(=O)O)c2)ccc1COC(=O)N(C)CCN(C)C(=O)n1ccc2c(N(C)[C@H]3CN(C(=O)CC#N)CC[C@H]3C)ncnc21

The remaining lines, values behind:

Compound: C[C@@H]1CCN(C(=O)CC#N)C[C@@H]1N(C)c1ncnc2c1ccn2C(=O)N(C)CCN(C)C(=O)OCc1ccc(/N=N/c2ccc(O)c(C(=O)O)c2)cc1
Stability [1]: Stable | Stability [2]: Stable | Stability [3]: Stable | Stability [4]: Stable | Stability [5]: Stable | Drug metabolism [6]: 2.114 mmol/L/h

Compound: C[C@@H]1CCN(C(=O)CC#N)C[C@@H]1N(C)c1ncnc2c1ccn2C(=O)N(C)CCN(C)C(=O)OCc1ccc(/N=N/c2ccc(O)c(C(=O)O)c2)cc1Cl
Ratio AUC [7]: 7.1 | Ratio AUC [8]: 4.49 | Activity [9]: Non-Toxic | Activity [10]: Non-Toxic | Activity [11]: Non-Toxic | Activity [12]: Non-Toxic | Stability [1]: Stable | Stability [2]: Stable | Stability [3]: Stable | Stability [4]: Stable | Stability [5]: Stable | Drug metabolism [6]: 3.22 mmol/L/h | Drug metabolism [13]: Metabolite_Detected | Cmax [14]: 2490 nM | Tmax [15]: 8 h | AUC [16]: 19.27 µM·h | beta t1/2 [17]: 3.09 h | AUC [18]: 4.5 µM·h | Ratio AUC [19]: 1.48 | AUC [20]: 99 µM·h | AUC [21]: 193 µM·h | AUC [22]: 357 µM·h | AUC [23]: 1600 µM·h | Activity (Mus musculus [24]): Active | Activity (Mus musculus [25]): Active | Activity (Mus musculus [26]): Active | Activity (Mus musculus [27]): Active | Activity (Mus musculus [28]): Active | Activity (Mus musculus [29]): Active | Activity (Mus musculus [30]): Active | Activity (Mus musculus [31]): Active | Activity (Mus musculus [32]): Active | Activity (Mus musculus [33]): Active | Activity (Mus musculus [34]): inactive | Activity (Mus musculus [35]): inactive | Activity [36]: Non-Toxic | Activity [37]: Non-Toxic | Activity [38]: Non-Toxic | Activity [39]: Non-Toxic | Activity [40]: Non-Toxic | Ratio AUC [41]: 9.61 | Activity (Mus musculus [42]): Active

Compound: Cc1cc(COC(=O)N(C)CCN(C)C(=O)n2ccc3c(N(C)[C@H]4CN(C(=O)CC#N)CC[C@H]4C)ncnc32)ccc1/N=N/c1ccc(O)c(C(=O)O)c1
Stability [1]: Stable | Stability [2]: Stable | Stability [3]: Stable | Stability [4]: Stable | Stability [5]: Stable | Drug metabolism [6]: 1.6 mmol/L/h

Source: ChEMBL document CHEMBL5046297, “Discovery of a Colon-Targeted Azo Prodrug of Tofacitinib through the Establishment of Colon-Specific Delivery Systems Constructed by 5-ASA-PABA-MAC and 5-ASA-PABA-Diamine for the Treatment of Ulcerative Colitis” (J Med Chem, 2022)
